Biological target: T1, human alpha-7 nAChR (Homo sapiens, UniProt P36544)
T1 construct: expressed in transfected cells; host or cells: Xenopus laevis oocytes (cRNA injection)
Experiment: Two-electrode voltage clamp of alpha-7 nAChR expressed in Xenopus oocytes (net charge)
Format: cell-based
Conditions: area under the curve of current vs. time; for Charge Alone: compound alone acting as an allosteric agonist; for Charge +C: compound together with choline or ACh, includes PAM and ago-PAM activity; call rule not given here
Experimental: The human alpha-7 nAChR receptor clone was obtained from Dr. Jon Lindstrom {University of Pennsylvania, Philadelphia, Pa.), aid the RIC-3 clone from Dr. Millet Treinin (Hebrew University, Jerusalem, Israel) for the purpose of co-injection with a7 to improve the level and speed of receptor expression (Halevi et al., 2003). After linearization and purification of cloned cDNA's, RNA, transcripts were prepared rising the appropriate mMessage mMachine kit tiom Ambion (Austin, Tex.).
Expression in X, laeivis Oocytes
Oocytes were obtained from mature (>9 cm) female Xenopus laeivis African frogs (Nasco, Ft. Atkinson, Wis.). Frogs were anesthetized in 0.7 g/L solution of ethyl 3-aminobenzoate methanesulfonate buffered with sodium bicarbonate, and oocytes were surgically removed through an abdominal incision. Harvested oocytes were treated with 1.25 mg/ml collagenase (Worthington Biochemicals, Freehold, N.J.) in calcium-free Barth's solution (88 mM NaCl, 1 mM KCl, 2.38 mM NaHCO3, 0.82 mM MgSO4, 15 mM HEPES, 12 mg/L tetracycline, pH 7.6) for 3-4 hours to remove the follicular layer. Stage-5 oocytes were isolated and injected with 50 nL (5-20 ng) of human alpha-7 and RIC-3 cRNA. Suitable levels of receptor expression were typically achieved 2-6 days after injection of cRNA. For experiments involving the PAM 4BP-TQS/GAT-107, where standard levels of expression result in ion currents too large to be recorded in voltage clamp, experiments were typically conducted 1-3 days after RNA injection.
Two-electrode voltage clamp experiments were conducted using OpusXpress6000A (Molecular Devices, Sunnyvale, Calif.), an integrated system that provides automated impalement and voltage clamp of up to eight oocytes in parallel. Both the current and voltage electrodes were filled with 3 M KCl, and oocytes were clamped at a holding potential of −60 mV. Data were collected at 50 Hz and filtered at 20 Hz. The oocytes were bath-perfused with Ringer's solution (115 mM NaCl, 10 mM HEPES, 2.5 mM KCl, 1.8 mM CaCl2, pH 7.3), and agonist solutions were delivered from a 96-well drug plate using disposable tips. Flow rates were set at 2 mL/min, with each drug or control solution delivered in 12 s durations, followed˜by 181 s washouts with Ringer's unless noted otherwise.
Experimental Protocols and Data Analysis
Responses of human alpha-7 receptors to agonists were measured as both peek current and net charge measured over a 120 s period beginning with the compound application (Papke and Papke, 2002). […] In experiments involving positive allosteric modulators (PAMs), the fast desensitization of alpha-7 was eliminated, allowing peak currents to be used as a valid measurement of the receptor-mediated responses (Wang et al., 2012; Williams et al., 2011).
Oocytes received two control ACh applications prior to receiving any drug in order to establish a steady reference response, and they received one or more control ACh applications at the end of all experiments. For experiments involving drug incubation through bath applications, all responses were normalized to the average of two ACh control responses taken immediately prior to the switch of bath solution, for each cell individually. These normalization procedures had the effect of compensating for differing levels of receptor expression among the multiple oocytes used in each experiment. Each experiment was conducted on at least four oocytes, with mean values and standard errors (S.E.M.) calculated from their normalized responses. […]

T1 sequence (P36544 23-502): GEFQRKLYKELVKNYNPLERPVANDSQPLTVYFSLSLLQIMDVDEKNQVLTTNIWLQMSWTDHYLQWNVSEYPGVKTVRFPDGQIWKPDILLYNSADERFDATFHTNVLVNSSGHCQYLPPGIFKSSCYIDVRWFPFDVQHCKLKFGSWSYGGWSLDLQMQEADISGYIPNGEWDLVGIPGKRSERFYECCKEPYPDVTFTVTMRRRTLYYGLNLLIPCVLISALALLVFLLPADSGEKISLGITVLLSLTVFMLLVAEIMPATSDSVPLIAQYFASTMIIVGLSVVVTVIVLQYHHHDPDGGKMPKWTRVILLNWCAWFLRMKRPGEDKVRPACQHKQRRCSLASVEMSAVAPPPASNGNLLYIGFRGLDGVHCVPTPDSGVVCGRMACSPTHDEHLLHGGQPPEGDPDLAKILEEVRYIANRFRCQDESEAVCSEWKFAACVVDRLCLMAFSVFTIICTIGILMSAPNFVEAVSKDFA

| SMILES | Charge Alone | Charge +C |
| --- | --- | --- |
| NS(=O)(=O)c1ccc2c(c1)[C@H]1C=CC[C@H]1CN2 (stereo in doubt) [Compound 33, 3a,4,5,9b-tetrahydro-3H-cyclopenta[c]quinoline-8-sulfonamide] | Inactive | Inactive |
| NS(=O)(=O)c1ccc2c(c1)[C@H]1C=CC[C@H]1[C@@H](c1csc3ccccc13)N2 (stereo in doubt) [Compound 39, 4-(benzo[b]thiophen-3-yl)-3a,4,5,9b-tetrahydro-3H-cyclopenta[c]quinoline-8-sulfonamide] | 22 | 145 |
| NS(=O)(=O)c1ccc2c(c1)[C@H]1C=CC[C@H]1[C@@H](c1cc3ccccc3s1)N2 (stereo in doubt) [Compound 41, 4-(benzo[b]thiophen-2-yl)-3a,4,5,9b-tetrahydro-3H-cyclopenta[c]quinoline-8-sulfonamide] | 3 | 528 |
| NS(=O)(=O)c1ccc2c(c1)[C@H]1C=CC[C@H]1[C@@H](c1c(F)c(F)c(F)c(F)c1F)N2 (stereo in doubt) [Compound 42, 4-(perfluorophenyl)-3a,4,5,9b-tetrahydro-3H-cyclopenta[c]quinoline-8-sulfonamide] | – | 47 |
| NS(=O)(=O)c1ccc2c(c1)[C@H]1C=CC[C@H]1[C@@H](c1ccc(Br)c3ccccc13)N2 (stereo in doubt) [Compound 53, 4-(4-bromonaphthalen-1-yl)-3a,4,5,9b-tetrahydro-3H-cyclopenta[c]quinoline-8-sulfonamide] | – | 76 |
| CCOC(=O)Nc1ccc([C@H]2Nc3ccc(S(N)(=O)=O)cc3[C@H]3C=CC[C@H]32)cc1 (stereo in doubt) [Compound 60, ethyl(4-(8-sulfamoyl-3a,4,5,9b-tetrahydro-3H-cyclopenta[c]quinolin-4-yl)phenyl)carbamate] | – | 276 |
| NS(=O)(=O)c1ccc2c(c1)[C@H]1C=CC[C@H]1[C@@H](c1ccc(NC(=O)OC3C4CC5CC(C4)CC3C5)cc1)N2 (stereo in doubt) [Compound 63, adamantan-2-yl (4-(8-sulfamoyl-3a,4,5,9b-tetrahydro-3H-cyclopenta[c]quinolin-4-yl)phenyl)carbamate] | 5 | 25 |
| CC(C)(C)CCCc1ccc([C@H]2Nc3ccc(S(N)(=O)=O)cc3[C@H]3C=CC[C@H]32)cc1 (stereo in doubt) [Compound 66, 4-(4-(4,4-dimethylpentyl)phenyl)-3a,4,5,9b-tetrahydro-3H-cyclopenta[c]quinoline-8-sulfonamide] | 330 | 1240 |
| CC(C)OC(=O)Nc1ccc([C@H]2Nc3ccc(S(N)(=O)=O)cc3[C@H]3C=CC[C@H]32)cc1 (stereo in doubt) [Compound 68, isopropyl (4-(8-sulfamoyl-3a,4,5,9b-tetrahydro-3H-cyclopenta[c]quinolin-4-yl)phenyl)carbamate] | 80 | 156 |
| CC(C)(C)COC(=O)c1ccc([C@H]2Nc3ccc(S(N)(=O)=O)cc3[C@H]3C=CC[C@H]32)cc1 (stereo in doubt) [Compound 70, neopentyl4-(8-sulfamoyl-3a,4,5,9b-tetrahydro-3H-cyclopenta[c]quinolin-4-yl)benzoate] | 52 | 487 |
| NS(=O)(=O)c1ccc2c(c1)[C@H]1C=CC[C@H]1[C@@H](c1csc(Br)n1)N2 (stereo in doubt) [Compound 85, 4-(2-bromothiazol-4-yl)-3a,4,5,9b-tetrahydro-3H-cyclopenta[c]quinoline-8-sulfonamide] | 10 | 166 |
| NS(=O)(=O)c1ccc2c(c1)[C@H]1C=CC[C@H]1[C@@H](c1ccc3sccc3c1)N2 (stereo in doubt) [Compound 96, 4-(benzo[b]thiophen-5-yl)-3a,4,5,9b-tetrahydro-3H-cyclopenta[c]quinoline-8-sulfonamide] | 116 | 156 |
| CC(C)NS(=O)(=O)c1ccc2c(c1)[C@H]1C=CC[C@H]1[C@@H](c1ccc(Br)cc1)N2 (stereo in doubt) [Compound 100, 4-(4-bromophenyl)-N-isopropyl-3a,4,5,9b-tetrahydro-3H-cyclopenta[c]quinoline-8-sulfonamide] | Inactive | Inactive |

Second part, the compound after the results:

| Charge Alone | Charge +C | SMILES |
| --- | --- | --- |
| – | 157 | NS(=O)(=O)c1ccc2c(c1)[C@H]1C=CC[C@H]1[C@@H](c1csc(Br)c1)N2 (stereo in doubt) [Compound 35, 4-(5-bromothiophen-3-yl)-3a,4,5,9b-tetrahydro-3H-cyclopenta[c]quinoline-8-sulfonamide] |
| 18 | 1246 | NS(=O)(=O)c1ccc2c(c1)[C@H]1C=CC[C@H]1[C@@H](c1scc(Br)c1Br)N2 (stereo in doubt) [Compound 38, 4-(3,4-dibromothiophen-2-yl)-3a,4,5,9b-tetrahydro-3H-cyclopenta[c]quinoline-8-sulfonamide] |
| Inactive | Inactive | O=C(O)c1ccc2c(c1)[C@H]1C=CC[C@H]1[C@@H](c1ccc(Br)cc1)N2 (stereo in doubt) [Compound 40, 4-(4-bromophenyl)-3a,4,5,9b-tetrahydro-3H-cyclopenta[c]quinoline-8-carboxylic acid] |
| – | 4 | NS(=O)(=O)c1ccc2c(c1)[C@H]1C=CC[C@H]1[C@@H](c1ccccn1)N2 (stereo in doubt) [Compound 52, 4-(pyridin-2-yl)-3a,4,5,9b-tetrahydro-3H-cyclopenta[c]quinoline-8-sulfonamide] |
| Inactive | Inactive | CCN(CC)S(=O)(=O)c1ccc2c(c1)[C@H]1C=CC[C@H]1[C@@H](c1ccc(Br)cc1)N2 (stereo in doubt) [Compound 55, 4-(4-bromophenyl)-N,N-diethyl-3a,4,5,9b-tetrahydro-3H-cyclopenta[c]quinoline-8-sulfonamide] |
| – | 85 | NS(=O)(=O)c1ccc2c(c1)[C@H]1C=CC[C@H]1[C@@H](c1ccc(NC(=O)OC3CCCCC3)cc1)N2 (stereo in doubt) [Compound 61, cyclohexyl(4-(8-sulfamoyl-3a,4,5,9b-tetrahydro-3H-cyclopenta[c]quinolin-4-yl)phenyl)carbamate] |
| – | 35 | NS(=O)(=O)c1ccc2c(c1)[C@H]1C=CC[C@H]1[C@@H](c1ccc(NC(=O)OC34CC5CC(CC(C5)C3)C4)cc1)N2 (stereo in doubt) [Compound 62, adamantan-1-yl (4-(8-sulfamoyl-3a,4,5,9b-tetrahydro-3H-cyclopenta[c]quinolin-4-yl)phenyl)carbamate] |
| 25 | 582 | CC(C)(C)CC(=O)Oc1ccc([C@H]2Nc3ccc(S(N)(=O)=O)cc3[C@H]3C=CC[C@H]32)cc1 (stereo in doubt) [Compound 69, 4-(8-sulfamoyl-3a,4,5,9b-tetrahydro-3H-cyclopenta[c]quinolin-4-yl)phenyl 3,3-dimethylbutanoate] |
| 7 | 357 | NS(=O)(=O)c1ccc2c(c1)[C@H]1C=CC[C@H]1[C@@H](c1ccc(Br)cn1)N2 (stereo in doubt) [Compound 97, 4-(5-bromopyridin-2-yl)-3a,4,5,9b-tetrahydro-3H-cyclopenta[c]quinoline-8-sulfonamide] |
| Inactive | Inactive | CC(C)(C)NS(=O)(=O)c1ccc2c(c1)[C@H]1C=CC[C@H]1[C@@H](c1ccc(Br)cc1)N2 (stereo in doubt) [Compound 101, 4-(4-bromophenyl)-N-(tert-butyl)-3a,4,5,9b-tetrahydro-3H-cyclopenta[c]quinoline-8-sulfonamide] |
| Inactive | Inactive | O=S(=O)(NC1CCCCC1)c1ccc2c(c1)[C@H]1C=CC[C@H]1[C@@H](c1ccc(Br)cc1)N2 (stereo in doubt) [Compound 102, 4-(4-bromophenyl)-N-cyclohexyl-3a,4,5,9b-tetrahydro-3H-cyclopenta[c]quinoline-8-sulfonamide] |
